In US12145927B2 (BRISTOL-MYERS SQUIBB COMPANY, priority 2018, dated 2024):

Each compound was assayed against T1, human IDO1 (Homo sapiens, UniProt P14902) (assay: IDO inhibition assay in human IDO1/HEK293 cells (IDO1 HEK Human)). Details: HEK293 cells stably expressing human IDO1; 20 hours incubation; absorbance at 490 nm after Ehrlich reagent.
T1 construct: expressed in transfected cells
Type: cell-based
Procedure: HEK293 cells were transfected with a pCDNA-based mammalian expression vector harboring human IDO1 cDNA (NM 002164.2) by electroporation. They were cultured in medium (DMEM with 10% FBS) containing 1 mg/ml G418 for two weeks. Clones of HEK293 cells that stably expressed human IDO1 protein were selected and expanded for IDO inhibition assay.
The human IDO1/HEK293 cells were seeded at 10,000 cells per 50 μL per well with RPMI/phenol red free media contains 10% FBS in a 384-well black wall clear bottom tissue culture plate (Matrix Technologies LLC) 100 nL of certain concentration of compound was then added to each well using ECHO liquid handling systems. The cells were incubated for 20 hours in 37° C. incubator with 5% CO2.
The compound treatments were stopped by adding trichloroacetic acid (Sigma-Aldrich) to a final concentration at 0.2%. The cell plate was further incubated at 50° C. for 30 minute. The equal volume supernatant (20 μL) and 0.2% (w/v) Ehrlich reagent (4-dimethylaminobenzaldehyde, Sigma-Aldrich) in glacial acetic acid were mixed in a new clear bottom 384-well plate. This plate was then incubated at RT for 30 minute. The absorbance at 490 nm was measured on Envision plate reader.
Compound IC50 values were calculated using the counts of 500 nM of a reference standard treatment as one hundred percent inhibition, and counts of no compound but DMSO treatment as zero percent inhibition.

T1 sequence (P14902 whole entry): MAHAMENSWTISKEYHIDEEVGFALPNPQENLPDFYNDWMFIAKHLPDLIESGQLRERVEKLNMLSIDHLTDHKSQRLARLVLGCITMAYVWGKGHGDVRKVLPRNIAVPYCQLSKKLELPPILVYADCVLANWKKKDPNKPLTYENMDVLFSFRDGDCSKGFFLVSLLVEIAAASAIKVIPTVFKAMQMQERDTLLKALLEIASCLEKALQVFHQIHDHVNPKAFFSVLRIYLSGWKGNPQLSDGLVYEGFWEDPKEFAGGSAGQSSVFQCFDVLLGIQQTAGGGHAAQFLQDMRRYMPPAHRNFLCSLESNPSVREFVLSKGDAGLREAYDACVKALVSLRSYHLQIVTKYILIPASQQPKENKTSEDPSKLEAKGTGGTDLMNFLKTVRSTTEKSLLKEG

Row | IC50 [nM] | Compound
1 | 785 | Cc1ccc(NC(=O)Nc2cc(-c3cc(F)ccc3C(=O)O)cc3c2O[C@@H](C)[C@@H]3CCC(F)(F)F)cc1 (relative stereo) [Example 119, rel-4-fluoro-2-((2R,3S)-2-methyl-7-(3-(p-tolyl)ureido)-3-(3,3,3-trifluoropropyl)-2,3-dihydrobenzofuran-5-yl)benzoic acid]
2 | > 6000 | Cc1ccc(NC(=O)Nc2cc(-c3ccccc3-c3nnn[nH]3)cc3c2OCC(O)C(O)C3c2ccccc2)cc1 (single isomer, unassigned) [9 (En. 1), 1-(7-(2-(1H-tetrazol-5-yl)phenyl)-3,4-dihydroxy-5-phenyl-2,3,4,5-tetrahydrobenzo[b]oxepin-9-yl)-3-(p-tolyl)urea]
3 | 579 | Cc1ccc(NC(=O)Nc2cc(-c3ccccc3-c3nnn[nH]3)cc3c2OCC(O)C(O)C3c2ccccc2)cc1 (single isomer, unassigned) [9 (En. 2), 1-(7-(2-(1H-tetrazol-5-yl)phenyl)-3,4-dihydroxy-5-phenyl-2,3,4,5-tetrahydrobenzo[b]oxepin-9-yl)-3-(p-tolyl)urea]
4 | 41.4 | O=C(Nc1ccccc1F)Nc1cc(-c2ccccc2-c2nnn[nH]2)cc2c1OCCCC2c1ccccc1 (single isomer, unassigned) [10 (En.2), 1-(7-(2-(1H-tetrazol-5-yl)phenyl)-5-phenyl-2,3,4,5-tetrahydrobenzo[b]oxepin-9-yl)-3-(2-fluorophenyl)urea]
5 | 1450 | O=C(Nc1ccccc1F)Nc1cc(-c2ccccc2-c2nnn[nH]2)cc2c1OCCCC2c1ccccc1 (single isomer, unassigned) [10 (En. 1), 1-(7-(2-(1H-tetrazol-5-yl)phenyl)-5-phenyl-2,3,4,5-tetrahydrobenzo[b]oxepin-9-yl)-3-(2-fluorophenyl)urea]
6 | 3500 | O=C(Nc1cc(-c2ccccc2-c2nnn[nH]2)cc2c1OCCCC2c1ccccc1)NC1CC1 (single isomer, unassigned) [23 (En. 1), 1-(7-(2-(1H-tetrazol-5-yl)phenyl)-5-phenyl-2,3,4,5-tetrahydrobenzo[b]oxepin-9-yl)-3-cyclopropylurea]
7 | > 6000 | O=C(Nc1cc(-c2ccccc2-c2nnn[nH]2)cc2c1OCCCC2c1ccccc1)NC1CC1 (single isomer, unassigned) [23 (En. 2), 1-(7-(2-(1H-tetrazol-5-yl)phenyl)-5-phenyl-2,3,4,5-tetrahydrobenzo[b]oxepin-9-yl)-3-cyclopropylurea]
8 | 28.6 | Cc1ccc(CC(=O)Nc2cc(-c3ccccc3-c3nnn[nH]3)cc3c2OCCCC3C(C)C)cc1 (single isomer, unassigned) [25 (En. 1), N-(7-(2-(1H-tetrazol-5-yl)phenyl)-5-isopropyl-2,3,4,5-tetrahydrobenzo[b]oxepin-9-yl)-2-(p-tolyl)acetamide]
9 | 71.4 | Cc1ccc(CC(=O)Nc2cc(-c3ccccc3-c3nnn[nH]3)cc3c2OCCCC3C(C)C)cc1 (single isomer, unassigned) [25 (En. 2), N-(7-(2-(1H-tetrazol-5-yl)phenyl)-5-isopropyl-2,3,4,5-tetrahydrobenzo[b]oxepin-9-yl)-2-(p-tolyl)acetamide]
10 | 2560 | Cc1ccc(-c2noc(Nc3cc(-c4ccccc4-c4nnn[nH]4)cc4c3OCCCC4c3ccccc3)n2)cc1 (single isomer, unassigned) [26 (En. 1), N-(7-(2-(1H-tetrazol-5-yl)phenyl)-5-phenyl-2,3,4,5-tetrahydrobenzo[b]oxepin-9-yl)-3-(p-tolyl)-1,2,4-oxadiazol-5-amine]
11 | 424 | Cc1ccc(-c2noc(Nc3cc(-c4ccccc4-c4nnn[nH]4)cc4c3OCCCC4c3ccccc3)n2)cc1 (single isomer, unassigned) [26 (En. 2), N-(7-(2-(1H-tetrazol-5-yl)phenyl)-5-phenyl-2,3,4,5-tetrahydrobenzo[b]oxepin-9-yl)-3-(p-tolyl)-1,2,4-oxadiazol-5-amine]
